Here are results for twelve compounds from article PMC9841521, “Subnanomolar Affinity and Selective Antagonism at α7 Nicotinic Receptor by Combined Modifications of 2-Triethylammonium Ethyl Ether of 4-Stilbenol (MG624)” (Journal of Medicinal Chemistry, 2022).

Test [1] addresses T1, human α3β4-nAChR subtype (Homo sapiens, UniProt P30926+P32297).
T1 construct: expressed in transfected cells
The experiment in a line: Competition binding with [3H]epibatidine, membranes of SH-EP1 cells stably transfected with α3 and β4. Conditions: for Ki: human α3β4 expressed in SH-EP1 cells, confidence interval in parentheses, read-out: α3β4-nAChR [3H]-Epi Ki.

Test [2] deals with T2, human α4β2-nAChR subtype (Homo sapiens, UniProt P17787+P43681).
T2 construct: expressed in transfected cells; gift of Dr. Jon Lindstrom
The experiment in a line: Competition binding with [3H]epibatidine, membranes of HEK 293 cells stably transfected with α4 and β2. Conditions: human α4β2 expressed in HEK 293 cells; confidence interval in parentheses; read-out: α4β2-nAChR [3H]-Epi Ki.

The target in test [3] is T3, human α9α10-nAChR (Homo sapiens, UniProt Q9GZZ6+Q9UGM1).
T3 construct: expressed in transfected cells; host or cells: Xenopus laevis oocytes (cRNA injection, α9:α10 9:1)
In words: Two-electrode voltage clamp, antagonism of currents activated by 1 mM ACh, test compound coapplied, X. laevis oocytes (α9:α10 cRNA 9:1). The note with it: coapplied with 1 mM ACh; for inhibition of ACh-induced α9α10-nAChR function (in words) / IC50: up to 100 μM; for IC50: 95% confidence interval in parentheses; for inhibition of ACh-induced function at the α9α10-nAChR: maximal inhibition. The test is classed as cell-based.

The target of test [4] is human α7-nAChR (Homo sapiens, UniProt P36544). The experiment in a line: Two-electrode voltage clamp, antagonism of currents activated by 1 mM ACh, test compound coapplied, X. laevis oocytes. The test is classed as cell-based. The note with it: coapplied with 1 mM ACh; for inhibition of ACh-induced α7-nAChR function (in words) / IC50: up to 100 μM; for IC50: 95% confidence interval in parentheses, NA = not inhibited even at 100 μM; for inhibition of ACh-induced function at the α7-nAChR: maximal inhibition. On the technique in general: Two-electrode voltage clamp holds a large cell at a set potential and records current.

Where [5] appears, read: read-out: α7 IC50 (peak current).

Where two headings read alike, the source gives them in different places.

For orientation: Ki means a dissociation constant, usually derived from enzyme kinetics or from competition with a known ligand. A word on the IC50: it is the midpoint of a concentration-inhibition curve.

On to `CC[N+](CC)(CC)CCOc1ccccc1` [Compound 3, N,N,N-Triethyl-2-phenoxyethan-1-aminium Iodide], for which the Ki worked out at 10 µM in test [1] and 19 µM in test [2].
In the same order, the values of `C=Cc1ccc(OCC[N+](CC)(CC)CC)cc1` [Compound 4, N,N,N-Triethyl-2-(4-vinylphenoxy)ethan-1-aminium Iodide] are 1.07 µM and 24 µM.
On to `CC[N+](CC)(CC)CCOc1ccc(-c2cccc3ccccc23)cc1.[I-]` [Compound 9, N,N,N-Triethyl-2-(4-(naphthalen-1-yl)phenoxy)ethan-1-aminium Iodide], for which the “higher affinity for the α3β4- than for the α7-nAChR” value in test [1] (binding affinities) is reported as “≈ 30 fold”.
Consider `CC[N+](CC)(CC)CCOc1ccc(/C=C/c2cccc3ccccc23)cc1` [Compound 10, (E)-N,N,N-Triethyl-2-(4-(2-(naphthalen-1-yl)vinyl)phenoxy)ethan-1-aminium Iodide], for which, in test [1], the Ki was 0.501 µM.
Consider `CC[N+](CC)(CC)CCOc1ccc(/C=C/c2ccc3ccccc3c2)cc1` [Compound 11, (E)-N,N,N-Triethyl-2-(4-(2-(naphthalen-2-yl)vinyl)phenoxy)ethan-1-aminium Iodide], for which, in test [1], the Ki amounted to 0.425 µM.
As for `CC[N+](CC)(CC)CCOc1ccc(/C=C/c2ccc(OC)cc2)cc1` [Compound 18, (E)-N,N,N-Triethyl-2-(4-(4-methoxystyryl)phenoxy)ethan-1-aminium Iodide], the Ki in test [1] stood at 0.187 µM.
On the same count and under the same terms, the figure for `CC[N+](CC)(CC)CCOc1ccc(OCc2ccccc2)cc1` [Compound 23, 2-(4-(Benzyloxy)phenoxy)-N,N,N-triethylethan-1-aminium Iodide] is 4.7 µM.
With `CC[N+](CC)(CC)CCOc1ccc(/N=N/c2ccccc2)cc1.[I-]` [Compound 27, (E)-N,N,N-Triethyl-2-(4-(phenyldiazenyl)phenoxy)ethan-1-aminium Iodide], in test [3], the “inhibition of ACh-induced α9α10-nAChR function (in words)” value is “complete or nearly complete inhibition”. For the same compound, the IC50 is 15.8 µM in test [3], 5.54 µM in test [4] (read-out: α7 IC50 (AUC)) and 11.2 µM in test [4] (setting [5]). Also, the “inhibition of ACh-induced α7-nAChR function (in words)” value in test [4] is reported as “complete or nearly complete inhibition”.
In the case of `CC[N+](CC)(CC)CCOc1ccc(-c2nc3ccccc3[nH]2)cc1` [Compound 29, 2-(4-(1H-Benzo[d]imidazol-2-yl)phenoxy)-N,N,N-triethylethan-1-aminium Iodide], in test [1], the Ki is 0.345 µM. Moreover, the figures for the IC50 in test [3], in test [4] (read-out: α7 IC50 (AUC)) and in test [4] (setting [5]) were 202 µM, 197 µM and 182 µM, respectively.
Consider `CC[N+](CC)(CC)CCOc1ccc(-c2ccc3cc[nH]c3c2)cc1.[I-]` [Compound 30, 2-(4-(1H-Indol-6-yl)phenoxy)-N,N,N-triethylethan-1-aminium Iodide], for which the Ki in test [1] came out at 0.174 µM. Further, in test [3], the “inhibition of ACh-induced α9α10-nAChR function (in words)” value is reported as “complete or nearly complete inhibition”, the IC50 is 6.46 µM and the “inhibition of ACh-induced function at the α9α10-nAChR” value is 100%. In test [4], the “inhibition of ACh-induced α7-nAChR function (in words)” value is reported as “complete or nearly complete inhibition” and the “inhibition of ACh-induced function at the α7-nAChR” value is 100%. Moreover, the IC50 in test [4] (read-out: α7 IC50 (AUC)) is 1.95 µM. Moreover, in test [4] (setting [5]), the IC50 was determined as 1.91 µM.
Regarding `CC[N+](CC)(CC)CCOc1ccc(-c2ccc3[nH]ccc3c2)cc1.[I-]` [Compound 31, 2-(4-(1H-Indol-5-yl)phenoxy)-N,N,N-triethylethan-1-aminium Iodide], the Ki in test [1] came out at 0.177 µM. Further, in test [3], the “inhibition of ACh-induced α9α10-nAChR function (in words)” value is recorded as “complete or nearly complete inhibition”, the half-maximal inhibitory concentration (IC50) is 8.13 µM and the “inhibition of ACh-induced function at the α9α10-nAChR” value is 100%. For the same compound, in test [4], the “inhibition of ACh-induced α7-nAChR function (in words)” value is given as “complete or nearly complete inhibition” and the “inhibition of ACh-induced function at the α7-nAChR” value was 100%. Besides, in test [4] (read-out: α7 IC50 (AUC)), the IC50 came out at 1.86 µM. In test [4] (setting [5]), the IC50 stood at 2.01 µM.
Turning to `CC[N+](CC)(CC)CCOc1ccc(-c2ccc3occc3c2)cc1` [Compound 32, 2-(4-(Benzofuran-5-yl)phenoxy)-N,N,N-triethylethan-1-aminium Iodide], in test [1], the Ki was 0.343 µM.
